Legend:
[1] = reversed-phase LC retention time (C18, 15 min MeOH gradient); higher = more hydrophobic / later elution
Protocol: (§1)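 Reference mixture of environmental contaminants analysed by RP-LC (BEH C18, 50 °C; ESI+ with water/MeOH plus formic acid and ammonium formate, ESI- with ammonium bicarbonate) coupled to a timsTOF Pro 2 with trapped ion mobility in nitrogen (ramp/accumulation 100 ms). CCS was calibrated with Agilent tune mix (CCS compendium) and averaged over five injections at 0.5-500 ng/mL. The table reports the lowest-CCS (putative monomer) peak; retention times are on the same gradient.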

[2] = collision cross section (TIMS, N2 drift gas) of the primary ion; higher = larger gas-phase ion size
Protocol: as §1

[3] = ionization mode: ESI+, ion species: [M+H]+
[4] = ionization mode: ESI-, ion species: [M-H]-
[5] = ionization mode: ESI+, ion species: [M]+

| Structure (SMILES) | reversed-phase LC retention time [1, 3] | collision cross section [2, 3] | reversed-phase LC retention time [1, 4] | collision cross section [2, 4] | reversed-phase LC retention time [1, 5] | collision cross section [2, 5] |
| --- | --- | --- | --- | --- | --- | --- |
| COc1cnc(OC)n2nc(NS(=O)(=O)c3c(OCC(F)F)cccc3C(F)(F)F)nc12 [Penoxsulam] | 12.3 min | 196.63 Å² | – | – | – | – |
| Oc1cc(Cl)c(Cl)c(Cl)c1 [3,4,5-Trichlorophenol] | – | – | 14.7 min | 126.86 Å² | – | – |
| Cc1cc(O)ccc1Cl [p-Chlorocresol] | – | – | 11.6 min | 122.21 Å² | – | – |
| O=C1CC2(CCCCC2)CN1 [Gabapentin-Lactam] | 11.2 min | 135.35 Å² | – | – | – | – |
| CCCCC(CC)COC(=O)c1ccc(C(=O)OCC(CC)CCCC)c(C(=O)OCC(CC)CCCC)c1 (centres undefined) [Tris(2-ethylhexyl)trimellitate] | 20.9 min | 258.93 Å² | – | – | – | – |
| CCCCOC(=O)CCCCCCCCC(=O)OCCCC [Dibutyl sebacate] | 18 min | 185.48 Å² | – | – | – | – |
| Oc1c(Br)cc(Br)cc1Br [2,4,6-Tribromophenol] | – | – | 12.8 min | 133.11 Å² | – | – |
| CCCSP(=O)(OCC)Oc1ccc(Br)cc1Cl (centres undefined) [Profenofos] | 16.6 min | 169.17 Å² | – | – | – | – |
| CCCCCCCCn1sccc1=O [2-Octyl-4-isothiazolin-3-one] | 14.9 min | 157.49 Å² | – | – | – | – |
| CCCCCCCCCCCC[N+](C)(C)[O-] [N,N-Dimethyldodecylamine N-oxide] | 15.6 min | 175.77 Å² | – | – | – | – |
| COC(=O)c1ccc(CNS(C)(=O)=O)cc1S(=O)(=O)NC(=O)Nc1nc(OC)cc(OC)n1 [Mesosulfuron-methyl] | 12.7 min | 201.99 Å² | 9.27 min | 206.67 Å² | – | – |
| Nc1ccc2nc3c(N)cccc3nc2c1 [1,7-Diaminophenazine] | 8.4 min | 143.6 Å² | – | – | – | – |
| CCCN(CC)CC1COC2(CCC(C(C)(C)C)CC2)O1 (centres undefined) [Spiroxamine] | 14.2 min | 177.53 Å² | – | – | – | – |
| Oc1c(Cl)c(Cl)c(Cl)c(Cl)c1Cl [Pentachlorophenol] | – | – | 13.8 min | 137.44 Å² | – | – |
| CC(=O)OCC(=O)[C@@]12OC3(CCCC3)O[C@@H]1C[C@H]1[C@@H]3CCC4=CC(=O)C=C[C@]4(C)[C@@]3(F)[C@@H](O)C[C@@]12C [Amcinonide] | 15.6 min | 217.58 Å² | – | – | – | – |
| N#CCNC(=O)c1cnccc1C(F)(F)F [Flonicamid] | 7.31 min | 149.83 Å² | – | – | – | – |
| CCCC[N+]1(C)[C@H]2CC(OC(=O)C(CO)c3ccccc3)C[C@H]1[C@H]1O[C@H]12 (some centres undefined) [Scopolamine-N-butyl] | – | – | – | – | 9.85 min | 188.31 Å² |
| Cc1ccc(S(N)(=O)=O)cc1 [p-Toluenesulfonamide] | – | – | 8.4 min | 134.47 Å² | – | – |
| CC(C)N(C(=O)CCl)c1ccccc1 [Propachlor] | 13 min | 143.81 Å² | – | – | – | – |
| N#Cc1cc(Cl)c(O)c(Cl)c1 [Chloroxynil] | – | – | 6.76 min | 125.1 Å² | – | – |
| CCCc1nc(C)c2c(=O)nc(-c3cc(S(=O)(=O)N4CCN(CC)CC4)ccc3OCC)[nH]n12 [Vardenafil] | 12 min | 227.75 Å² | 14.9 min | 219.66 Å² | – | – |
| CN1C(=O)C(O)N=C(c2ccccc2)c2cc(Cl)ccc21 (centres undefined) [Temazepam] | 13.4 min | 167.53 Å² | – | – | – | – |
| CO/N=C(/C(=O)O)c1ccccc1CO/N=C(\C)c1cccc(C(F)(F)F)c1 | 15.5 min | 186.57 Å² | – | – | – | – |
| CO/C=C(/C(=O)OC)c1ccccc1COc1cccc(C(F)(F)F)n1 [Picoxystrobin] | 15.2 min | 174.95 Å² | – | – | – | – |
| CCCCOC(=O)c1ccc(O)cc1 [Butyl 4-hydroxybenzoate] | – | – | 14.2 min | 147.76 Å² | – | – |
| CC#Cc1cc(C)nc(Nc2ccccc2)n1 [Mepanipyrim] | 14.6 min | 152.51 Å² | – | – | – | – |
| CCCC(C)C1(CC)C(=O)NC(=O)NC1=O (centres undefined) [Pentobarbital] | – | – | 12.2 min | 150.46 Å² | – | – |

Further lines, with some results ahead:

| reversed-phase LC retention time [1, 3] | collision cross section [2, 3] | reversed-phase LC retention time [1, 4] | collision cross section [2, 4] | Structure (SMILES) | reversed-phase LC retention time [1, 5] | collision cross section [2, 5] |
| --- | --- | --- | --- | --- | --- | --- |
| 15.2 min | 212.76 Å² | 15.7 min | 209.59 Å² | CCC(=O)O[C@]1(C(=O)SCF)[C@H](C)C[C@H]2[C@@H]3C[C@H](F)C4=CC(=O)C=C[C@]4(C)[C@@]3(F)[C@@H](O)C[C@@]21C [Fluticasone propionate] | – | – |
| – | – | 12.1 min | 203.46 Å² | CCC(C)C(=O)OC1CC(O)C=C2C=CC(C)C(CCC(O)CC(O)CC(=O)O)C21 (centres undefined) [Pravastatin] | – | – |
| 12.1 min | 162.11 Å² | – | – | CCCNCCOc1c(Cl)cc(Cl)cc1Cl | – | – |
| 10.3 min | 163.01 Å² | – | – | Cc1cccc(C)c1N(Cn1cccn1)C(=O)CS(C)=O (centres undefined) [Metazachlor BH 479-11] | – | – |
| 13.8 min | 151.76 Å² | – | – | COc1ccc2cc(C(C)C(=O)O)ccc2c1 (centres undefined) [Naproxen] | – | – |
| 7.75 min | 193.4 Å² | – | – | CCN1CCCC1CNC(=O)c1cc(S(=O)(=O)CC)c(N)cc1OC (centres undefined) [Amisulpride] | – | – |
| 10.3 min | 232.7 Å² | 10.1 min | 224.84 Å² | O=c1cc(-c2ccc(O)cc2)oc2cc(O[C@@H]3O[C@H](CO)[C@@H](O)[C@H](O)[C@H]3O[C@@H]3OC[C@](O)(CO)[C@H]3O)cc(O)c12 [Apiin] | – | – |
| 8.73 min | 132.33 Å² | – | – | c1ccc2nc3ccccc3cc2c1 [Acridine] | – | – |
| 13.5 min | 200.88 Å² | 14.6 min | 195.01 Å² | O=C(O)COCCN1CCN(C(c2ccccc2)c2ccc(Cl)cc2)CC1 (centres undefined) [Cetirizine] | – | – |
| – | – | 11.3 min | 133.39 Å² | CCOC(=O)c1ccc(O)cc1 [Ethylparaben] | – | – |
| 14.6 min | 190.49 Å² | 14.9 min | 190.87 Å² | CC(=O)[C@@]1(O)CC[C@H]2[C@@H]3C=C(Cl)C4=CC(=O)[C@@H]5C[C@@H]5[C@]4(C)[C@H]3CC[C@@]21C [Cyproterone] | – | – |
| 8.83 min | 157.12 Å² | 8.58 min | 155.17 Å² | CCc1cccc(C)c1NC(=O)CS(=O)(=O)O | – | – |
| 14.5 min | 183.52 Å² | 14.8 min | 185.03 Å² | CC(=O)C1(O)CCC2C3CCC4=CC(=O)CCC4(C)C3CCC21C (stereo not drawn) [17alpha-Hydroxyprogesterone] | – | – |
| – | – | 14.4 min | 194.82 Å² | C[C@H]1C[C@H]2[C@@H]3CCC4=CC(=O)C=C[C@]4(C)[C@@]3(F)[C@@H](O)C[C@]2(C)[C@@]1(O)C(=O)CCl [Clobetasol] | – | – |
| 11.8 min | 159.4 Å² | – | – | CCOC(=O)CC(O)(CC(=O)OCC)C(=O)OCC [Triethylcitrate] | – | – |
| 14.3 min | 152.41 Å² | – | – | CCN(CC)c1ccc2c(C)cc(=O)oc2c1 [7-Diethylamino-4-methylcoumarin] | – | – |
| – | – | 18.9 min | 178.05 Å² | BrC1CCC(Br)C(Br)CCC(Br)C(Br)CCC1Br (centres undefined) [Hexabromocyclododecane (two peaks)] | – | – |

| reversed-phase LC retention time [1, 3] | collision cross section [2, 3] | reversed-phase LC retention time [1, 4] | collision cross section [2, 4] | Structure (SMILES) | reversed-phase LC retention time [1, 5] | collision cross section [2, 5] |
| --- | --- | --- | --- | --- | --- | --- |
| 2.22 min | 126.69 Å² | – | – | S=c1nc[nH]c2nc[nH]c12 [6-Mercaptopurine] | – | – |
| 18.6 min | 204.46 Å² | – | – | CC(C)CCCCOC(=O)c1ccccc1C(=O)OCCCCC(C)C [Diisoheptyl phthalate] | – | – |
| 5.52 min | 216.41 Å² | 5.58 min | 210.1 Å² | CN(C(=O)CO)c1c(I)c(C(=O)NCC(O)CO)c(I)c(C(=O)NCC(O)CO)c1I (centres undefined) [Iomeprol] | – | – |
| – | – | 14.3 min | 124.62 Å² | Oc1cccc2ccccc12 [1-Naphthol] | – | – |
| 13.8 min | 187.34 Å² | – | – | CN(C/C=C/C#CC(C)(C)C)Cc1cccc2ccccc12 [Terbinafine] | – | – |
| 7.36 min | 159 Å² | – | – | CC(C)NCC(O)COc1cccc2[nH]ccc12 (centres undefined) [Pindolol] | – | – |
| 17.1 min | 155.68 Å² | – | – | CC(C)c1ccc2sc3ccccc3c(=O)c2c1 [2-Isopropylthioxanthone] | – | – |
| – | – | 6.35 min | 149.37 Å² | O=C1CN(/N=C/c2ccc([N+](=O)[O-])o2)C(=O)N1 [Nitrofurantoin] | – | – |
| 11.7 min | 144.78 Å² | – | – | CC12CC3CC(C)(C1)CC(N)(C3)C2 [Memantine] | – | – |
| 10 min | 164.03 Å² | 9.95 min | 167.03 Å² | COCCN(C(=O)CS(=O)(=O)O)c1c(C)cccc1C [Dimethachlor ESA] | – | – |
| 11.3 min | 185.09 Å² | – | – | CC(C)(C#N)c1cc(Cn2cncn2)cc(C(C)(C)C#N)c1 [Anastrozole] | – | – |
| 19.8 min | 223.46 Å² | 17.1 min | 188.09 Å² | CCCCC(CC)COP(=O)(O)OCC(CC)CCCC (centres undefined) [Bis(2-ethylhexyl)phosphate] | – | – |
| 10.6 min | 135.18 Å² | – | – | COCCOCCOCCO [2-(2-(2-Methoxyethoxy)ethoxy)ethanol] | – | – |
| – | – | 7.53 min | 159.41 Å² | CCc1cccc(C)c1N(C(=O)C(=O)O)C(C)C(=O)O (centres undefined) | – | – |
| 11.9 min | 185.97 Å² | 15.2 min | 184 Å² | C[C@]12C=CC(=O)C=C1CC[C@@H]1[C@@H]2C(=O)C[C@@]2(C)[C@H]1CC[C@]2(O)C(=O)CO [Prednisone] | – | – |
| 8.42 min | 198.92 Å² | – | – | CN(C)[C@@H]1C(O)=C(C(N)=O)C(=O)[C@@]2(O)C(O)=C3C(=O)c4c(O)cccc4[C@@](C)(O)[C@H]3[C@H](O)[C@@H]12 [Oxytetracycline] | – | – |

From the supplement of paper PMC12613149
